Values quoted from earlier work as cited in PubChem BioAssay AID1259409 (Chemical Carcinogenesis Research Information System (CCRIS), 2018).

Test system: rodent chemically induced tumor inhibition, incidence and multiplicity
Experiment: CCRIS tumor inhibitor studies
Conditions: Promoter: NONE USED

Structure (SMILES)	tumour outcome (control, treated, inhibition, significance) (Carcinogen: BETA-PROPIOLACTONE, 57-57-8, Dose [Inhibitor]: 40 UMOL IN 0.2 ML WATER 5 MIN PRIOR TO EACH CARCINOGEN DOSE (STUDY DURATION: 26 WK), Route [Inhibitor]: GAVAGE, Species: MOUSE, Strain/Sex: STRAIN-A/FEMALE, Target Tissue: Type of Lesion: FORESTOMACH: PAPILLOMA, Dose [Carcinogen]: 28 UMOL IN 0.1 ML WATER 2/WK FOR 10 WK)	tumour outcome (control, treated, inhibition, significance) (Carcinogen: BETA-PROPIOLACTONE, 57-57-8, Dose [Inhibitor]: 70 UMOL IN 0.2 ML WATER BEGINNING 5 MIN PRIOR TO EACH CARCINOGEN DOSE (STUDY DURATION: 50 WK), Route [Inhibitor]: INTRARECTAL, Species: RAT, Strain/Sex: F344/MALE, Target Tissue: Type of Lesion: LARGE INTESTINE: ADENOMATOUS POLYP, Dose [Carcinogen]: 35 UMOL IN 0.1 ML PROPYLENE GLYCOL 2/WK FOR 6 WK)	tumour outcome (control, treated, inhibition, significance) (Carcinogen: N-NITROSOBIS(2-OXOPROPYL)AMINE, 60599-38-4, Dose [Inhibitor]: 0, 0.25% IN DIET FOR 27 WK BEGINNING POST LAST CARCINOGEN DOSE (STUDY DURATION: 32 WK), Route [Inhibitor]: ORAL, Species: HAMSTER, Strain/Sex: SYRIAN/FEMALE, Target Tissue: Type of Lesion: PANCREAS: ADENOCARCINOMA, Dose [Carcinogen]: 10 MG/KG 1/WK FOR 5 WK)
O=S(=O)(O)c1ccc(S)cc1	100%, 57%, 43%, p<0.001	100%, 21%, 79%, p<0.001	–
CCCCC1C(=O)N(c2ccccc2)N(c2ccccc2)C1=O	–	–	20/28 (71%), 7/19 (37%), 48%, p<0.05
